{
  "source": "paper PMC9520775",
  "about": "“Everolimus pharmacokinetics and exposure-response relationship in Japanese patients with advanced breast cancer” (Frontiers in Pharmacology, 2022)",
  "test_system": "patients with advanced or metastatic breast cancer",
  "assay": "Adverse events (CTCAE Ver. 4.0), dose-limiting toxicities and dose reductions under everolimus",
  "assay_type": "in vivo, human",
  "excerpt": "This was a prospective, observational PK study. Patients with advanced or metastatic breast cancer who received everolimus between November 2015 and November 2018 at Kobe City Medical Center General Hospital were enrolled in this study. The main inclusion criteria included the following: age ≥20 years; Eastern Cooperative Oncology Group (ECOG) performance status (PS): 0 or 1; and adequate bone marrow, liver, and renal function. The main exclusion criteria were interstitial pneumonia or pulmonary fibrosis, HBsAg positive, and psychiatric or psychological symptoms that made it difficult to participate in the study. Every participant provided written informed consent. This study was conducted in accordance with the Declaration of Helsinki and approved by the Institutional Review Board, under Approval Number zn151103.\nBased on the physician’s decision, the patients were prescribed a starting dose of either 5 or 10 mg everolimus once daily. The everolimus dose was reduced when a patient experienced adverse events higher than grade 2. The first reduced dose was 5 mg once daily, followed by the second reduced dose of 2.5 mg once daily or 5 mg every alternate day. In addition, everolimus doses could be increased if adverse events improved to grade 1 or less, or deemed inefficacious. The adverse events were evaluated weekly for the first month and then every 1–4 weeks, according to the Common Terminology Criteria for Adverse Events Ver. 4.0.\nStatistical differences in everolimus trough concentrations, doses and body weights between patient cohorts were assessed using the Mann–Whitney test. Progression-free survival (PFS) was assessed using the Kaplan-Meier method and the log-rank test. All statistical analyses were performed using GraphPad Prism version 7.03 (San Diego, CA). p < 0.05 was considered statistically significant.",
  "key": {"[1]": {"settings": "Initial dose: 5 mg/day (n = 6), Grade 3"}, "[2]": {"settings": "Initial dose: 5 mg/day (n = 6), Grade 4"}, "[3]": {"settings": "Initial dose: 5 mg/day (n = 6), Grade All"}, "[4]": {"settings": "Initial dose: 10 mg/day (n = 12), Grade 1"}, "[5]": {"settings": "Initial dose: 10 mg/day (n = 12), Grade 2"}, "[6]": {"settings": "Initial dose: 10 mg/day (n = 12), Grade 3"}, "[7]": {"settings": "Initial dose: 10 mg/day (n = 12), Grade 4"}, "[8]": {"settings": "Initial dose: 10 mg/day (n = 12), Grade All"}},
  "data": [
    {"smiles": "CO[C@H]1C[C@@H]2CC[C@@H](C)[C@@](O)(O2)C(=O)C(=O)N2CCCC[C@H]2C(=O)O[C@H]([C@H](C)C[C@@H]2CC[C@@H](OCCO)[C@H](OC)C2)CC(=O)[C@H](C)/C=C(\\C)[C@@H](O)[C@@H](OC)C(=O)[C@H](C)C[C@H](C)/C=C/C=C/C=C/1C", "note": "[everolimus]", "values": [
      {"measurement": "Adverse event, n: Diarrhea", "setting": "[1]", "value": 0},
      {"measurement": "Adverse event, n: Dysgeusia", "setting": "[1]", "value": 0},
      {"measurement": "Adverse event, n: Epistaxis", "setting": "[1]", "value": 0},
      {"measurement": "Adverse event, n: High cholesterol", "setting": "[1]", "value": 0},
      {"measurement": "Adverse event, n: Hyperglycemia", "setting": "[1]", "value": 0},
      {"measurement": "Adverse event, n: Hypertriglyceridemia", "setting": "[1]", "value": 0},
      {"measurement": "Adverse event, n: Hypokalemia", "setting": "[1]", "value": 1},
      {"measurement": "Adverse event, n: Interstitial lung disease", "setting": "[1]", "value": 0},
      {"measurement": "Adverse event, n: Malaise", "setting": "[1]", "value": 0},
      {"measurement": "Adverse event, n: Mucositis oral", "setting": "[1]", "value": 0},
      {"measurement": "Adverse event, n: Neutrophil count decreased", "setting": "[1]", "value": 0},
      {"measurement": "Adverse event, n: Platelet decrease", "setting": "[1]", "value": 0},
      {"measurement": "Adverse event, n: Rash", "setting": "[1]", "value": 0},
      {"measurement": "Adverse event, n: Diarrhea", "setting": "[2]", "value": 0},
      {"measurement": "Adverse event, n: Dysgeusia", "setting": "[2]", "value": 0},
      {"measurement": "Adverse event, n: Epistaxis", "setting": "[2]", "value": 0},
      {"measurement": "Adverse event, n: High cholesterol", "setting": "[2]", "value": 0},
      {"measurement": "Adverse event, n: Hyperglycemia", "setting": "[2]", "value": 0},
      {"measurement": "Adverse event, n: Hypertriglyceridemia", "setting": "[2]", "value": 0},
      {"measurement": "Adverse event, n: Hypokalemia", "setting": "[2]", "value": 0},
      {"measurement": "Adverse event, n: Interstitial lung disease", "setting": "[2]", "value": 0},
      {"measurement": "Adverse event, n: Malaise", "setting": "[2]", "value": 0},
      {"measurement": "Adverse event, n: Mucositis oral", "setting": "[2]", "value": 0},
      {"measurement": "Adverse event, n: Neutrophil count decreased", "setting": "[2]", "value": 0},
      {"measurement": "Adverse event, n: Platelet decrease", "setting": "[2]", "value": 0},
      {"measurement": "Adverse event, n: Rash", "setting": "[2]", "value": 0},
      {"measurement": "Adverse event, n: Diarrhea", "setting": "[3]", "value": 1},
      {"measurement": "Adverse event, n: Dysgeusia", "setting": "[3]", "value": 2},
      {"measurement": "Adverse event, n: Epistaxis", "setting": "[3]", "value": 2},
      {"measurement": "Adverse event, n: High cholesterol", "setting": "[3]", "value": 4},
      {"measurement": "Adverse event, n: Hyperglycemia", "setting": "[3]", "value": 2},
      {"measurement": "Adverse event, n: Hypertriglyceridemia", "setting": "[3]", "value": 3},
      {"measurement": "Adverse event, n: Hypokalemia", "setting": "[3]", "value": 3},
      {"measurement": "Adverse event, n: Interstitial lung disease", "setting": "[3]", "value": 1},
      {"measurement": "Adverse event, n: Malaise", "setting": "[3]", "value": 2},
      {"measurement": "Adverse event, n: Mucositis oral", "setting": "[3]", "value": 6},
      {"measurement": "Adverse event, n: Neutrophil count decreased", "setting": "[3]", "value": 0},
      {"measurement": "Adverse event, n: Platelet decrease", "setting": "[3]", "value": 2},
      {"measurement": "Adverse event, n: Rash", "setting": "[3]", "value": 4},
      {"measurement": "Adverse event, n: Diarrhea", "setting": "[4]", "value": 1},
      {"measurement": "Adverse event, n: Dysgeusia", "setting": "[4]", "value": 3},
      {"measurement": "Adverse event, n: Epistaxis", "setting": "[4]", "value": 4},
      {"measurement": "Adverse event, n: High cholesterol", "setting": "[4]", "value": 5},
      {"measurement": "Adverse event, n: Hyperglycemia", "setting": "[4]", "value": 2},
      {"measurement": "Adverse event, n: Hypertriglyceridemia", "setting": "[4]", "value": 6},
      {"measurement": "Adverse event, n: Hypokalemia", "setting": "[4]", "value": 4},
      {"measurement": "Adverse event, n: Interstitial lung disease", "setting": "[4]", "value": 3},
      {"measurement": "Adverse event, n: Malaise", "setting": "[4]", "value": 5},
      {"measurement": "Adverse event, n: Mucositis oral", "setting": "[4]", "value": 5},
      {"measurement": "Adverse event, n: Neutrophil count decreased", "setting": "[4]", "value": 2},
      {"measurement": "Adverse event, n: Platelet decrease", "setting": "[4]", "value": 7},
      {"measurement": "Adverse event, n: Rash", "setting": "[4]", "value": 8},
      {"measurement": "Adverse event, n: Diarrhea", "setting": "[5]", "value": 3},
      {"measurement": "Adverse event, n: Dysgeusia", "setting": "[5]", "value": 0},
      {"measurement": "Adverse event, n: Epistaxis", "setting": "[5]", "value": 0},
      {"measurement": "Adverse event, n: High cholesterol", "setting": "[5]", "value": 2},
      {"measurement": "Adverse event, n: Hyperglycemia", "setting": "[5]", "value": 1},
      {"measurement": "Adverse event, n: Hypertriglyceridemia", "setting": "[5]", "value": 3},
      {"measurement": "Adverse event, n: Hypokalemia", "setting": "[5]", "value": 1},
      {"measurement": "Adverse event, n: Interstitial lung disease", "setting": "[5]", "value": 1},
      {"measurement": "Adverse event, n: Malaise", "setting": "[5]", "value": 0},
      {"measurement": "Adverse event, n: Mucositis oral", "setting": "[5]", "value": 6},
      {"measurement": "Adverse event, n: Neutrophil count decreased", "setting": "[5]", "value": 3},
      {"measurement": "Adverse event, n: Platelet decrease", "setting": "[5]", "value": 0},
      {"measurement": "Adverse event, n: Rash", "setting": "[5]", "value": 2},
      {"measurement": "Adverse event, n: Diarrhea", "setting": "[6]", "value": 0},
      {"measurement": "Adverse event, n: Dysgeusia", "setting": "[6]", "value": 0},
      {"measurement": "Adverse event, n: Epistaxis", "setting": "[6]", "value": 0},
      {"measurement": "Adverse event, n: High cholesterol", "setting": "[6]", "value": 0},
      {"measurement": "Adverse event, n: Hyperglycemia", "setting": "[6]", "value": 0},
      {"measurement": "Adverse event, n: Hypertriglyceridemia", "setting": "[6]", "value": 0},
      {"measurement": "Adverse event, n: Hypokalemia", "setting": "[6]", "value": 0},
      {"measurement": "Adverse event, n: Interstitial lung disease", "setting": "[6]", "value": 0},
      {"measurement": "Adverse event, n: Malaise", "setting": "[6]", "value": 0},
      {"measurement": "Adverse event, n: Mucositis oral", "setting": "[6]", "value": 0},
      {"measurement": "Adverse event, n: Neutrophil count decreased", "setting": "[6]", "value": 1},
      {"measurement": "Adverse event, n: Platelet decrease", "setting": "[6]", "value": 0},
      {"measurement": "Adverse event, n: Rash", "setting": "[6]", "value": 0},
      {"measurement": "Adverse event, n: Diarrhea", "setting": "[7]", "value": 0},
      {"measurement": "Adverse event, n: Dysgeusia", "setting": "[7]", "value": 0},
      {"measurement": "Adverse event, n: Epistaxis", "setting": "[7]", "value": 0},
      {"measurement": "Adverse event, n: High cholesterol", "setting": "[7]", "value": 0},
      {"measurement": "Adverse event, n: Hyperglycemia", "setting": "[7]", "value": 0},
      {"measurement": "Adverse event, n: Hypertriglyceridemia", "setting": "[7]", "value": 0},
      {"measurement": "Adverse event, n: Hypokalemia", "setting": "[7]", "value": 1},
      {"measurement": "Adverse event, n: Interstitial lung disease", "setting": "[7]", "value": 0},
      {"measurement": "Adverse event, n: Malaise", "setting": "[7]", "value": 0},
      {"measurement": "Adverse event, n: Mucositis oral", "setting": "[7]", "value": 0},
      {"measurement": "Adverse event, n: Neutrophil count decreased", "setting": "[7]", "value": 0},
      {"measurement": "Adverse event, n: Platelet decrease", "setting": "[7]", "value": 0},
      {"measurement": "Adverse event, n: Rash", "setting": "[7]", "value": 0},
      {"measurement": "Adverse event, n: Diarrhea", "setting": "[8]", "value": 4},
      {"measurement": "Adverse event, n: Dysgeusia", "setting": "[8]", "value": 3},
      {"measurement": "Adverse event, n: Epistaxis", "setting": "[8]", "value": 4},
      {"measurement": "Adverse event, n: High cholesterol", "setting": "[8]", "value": 7},
      {"measurement": "Adverse event, n: Hyperglycemia", "setting": "[8]", "value": 3},
      {"measurement": "Adverse event, n: Hypertriglyceridemia", "setting": "[8]", "value": 9},
      {"measurement": "Adverse event, n: Hypokalemia", "setting": "[8]", "value": 6},
      {"measurement": "Adverse event, n: Interstitial lung disease", "setting": "[8]", "value": 4},
      {"measurement": "Adverse event, n: Malaise", "setting": "[8]", "value": 5},
      {"measurement": "Adverse event, n: Mucositis oral", "setting": "[8]", "value": 11},
      {"measurement": "Adverse event, n: Neutrophil count decreased", "setting": "[8]", "value": 6},
      {"measurement": "Adverse event, n: Platelet decrease", "setting": "[8]", "value": 7},
      {"measurement": "Adverse event, n: Rash", "setting": "[8]", "value": 10},
      {"measurement": "stomatitis, incidence, all grade", "setting": "all patients, n = 18", "value": 94, "unit": "%"},
      {"measurement": "proportion of all patients who required a second dose reduction", "setting": "from the starting dose of 10 mg (7/18)", "value": 39, "unit": "%"},
      {"measurement": "number of patients with dose-limiting toxicities (DLTs)", "setting": "of 18 patients, during the 10 months of the study period", "value": 13},
      {"measurement": "proportion of patients who required dose reduction owing to adverse drug reactions", "setting": "starting dose of 5 mg (5/6)", "value": 83, "unit": "%"},
      {"measurement": "DLT while being treated with clarithromycin", "setting": "three patients, clarithromycin 200 mg twice daily for 7 days (CYP3A4 inhibitor) during everolimus treatment", "value": "no DLT"}
    ]}
  ]
}
